# Positions count from the first letter of the chain named.
# Legend:
# UGT2B7 (N315A)-BRIL = biological target: T1, UGT2B7 (N315A)-BRIL (Homo sapiens, UniProt P16662, N315A); assay: Surface plasmon resonance binding to purified UGT2B7 (N315A)-BRIL; conditions: SPR, 25°C, Biacore T200, CM7 chip, steady-state affinity model
# T1 construct: we selected the full-length UGT2B7 (N315A)-BRIL construct with BRIL covalently attached to the C-terminus of UGT2B7; made in house; host or cells: Spodoptera frugiperda Sf9 insect cells (Bac-to-Bac baculovirus)
# T1 sequence (P16662 24-529 N315A): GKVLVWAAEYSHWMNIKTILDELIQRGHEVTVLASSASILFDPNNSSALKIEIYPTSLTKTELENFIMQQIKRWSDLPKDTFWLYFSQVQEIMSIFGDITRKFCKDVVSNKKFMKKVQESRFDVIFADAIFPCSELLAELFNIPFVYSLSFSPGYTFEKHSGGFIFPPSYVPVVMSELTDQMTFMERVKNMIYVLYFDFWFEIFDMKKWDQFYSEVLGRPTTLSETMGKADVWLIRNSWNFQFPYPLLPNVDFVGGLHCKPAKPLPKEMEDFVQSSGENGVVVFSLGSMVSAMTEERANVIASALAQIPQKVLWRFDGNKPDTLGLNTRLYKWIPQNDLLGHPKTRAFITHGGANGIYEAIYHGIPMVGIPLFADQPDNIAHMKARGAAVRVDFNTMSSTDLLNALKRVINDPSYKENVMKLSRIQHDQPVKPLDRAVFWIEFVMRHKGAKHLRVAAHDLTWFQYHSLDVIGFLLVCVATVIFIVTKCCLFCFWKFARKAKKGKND
# Protocol: All experiments were performed with a running buffer containing phosphate buffer (pH 7.4), 0.002% LMNG, and 0.0002% CHS to maintain the concentration of detergent above the critical micelle concentration, which is necessary for the formation of micelles and the correct folding of the purified UGT2B7 proteins. About 8,500 response units of 6 × His-tag monoclonal antibody (Proteintech) were directly immobilized on the chip, which were desalted in 10 mM sodium acetate (pH 4.5). Then the purified UGT2B7 proteins flowed over the chip and coupled with the His-tag antibody at about 18,000 RU. And the blank channel was used as the negative control. Substrates or inhibitors solutions flowed over the chip at a flow rate of 30 μl/min and were contacted 120 s. Then, flowed running buffer at the same rate to dissociation 120 s. The obtained affinities data were analyzed with the BIA evaluation software using the steady-state affinity model.
# UGT2B7-BRIL = biological target: T2, UGT2B7-BRIL (Homo sapiens, UniProt P16662); assay: CPM thermostability assay (melting temperature) of UGT2B7-BRIL in the presence of compounds; type: binding; conditions: apo protein Tm […]; for melting temperature (Tm) of UGT2B7-BRIL in the presence of the compound alone: CPM fluorescence, 20-95°C ramp
# T2 construct: 10xHis (C); made in house; host or cells: Spodoptera frugiperda Sf9 insect cells (Bac-to-Bac baculovirus)
# T2 sequence (P16662 24-529): T1 sequence (P16662 24-529 N315A) with A292N
# Protocol: The gain setting was determined at the beginning of the run and the melting temperature (Tm) was calculated from the point of inflection.
# purified UGT2B7 proteins = assay: Glucuronidation of zidovudine by purified UGT2B7 proteins in detergent LMNG/CHS; type: in vitro ADME, human; conditions: purified protein in detergent LMNG/CHS, no phospholipid bilayer
SMILES,Kd (UGT2B7 (N315A)-BRIL),melting temperature (Tm) of UGT2B7-BRIL in the presence of the compound alone (UGT2B7-BRIL),glucuronidation by purified UGT2B7 proteins (purified UGT2B7 proteins),melting temperature (Tm) of UGT2B7-BRIL in the presence of both cofactor (UDP) and substrate (UGT2B7-BRIL; substrate + UDP)
COc1ccc([C@@H]2CC(=O)c3c(O)cc(O)cc3O2)cc1O [Hesperetin],49.8 µM,,,
COc1cc2c(c(O)c1OC)-c1c(cc(OC)c(OC)c1OC)C[C@@H](C)[C@@H](C)C2 [Schisanhenol],17.3 µM,,,
"O=c1ccn([C@@H]2O[C@H](COP(=O)([O-])OP(=O)([O-])O)[C@@H](O)[C@H]2O)c(=O)[nH]1.[Na+].[Na+] [UDP, uridine 5′-diphosphate disodium salt]",589 µM,50.9 °C,,
Cc1cn([C@H]2C[C@H](N=[N+]=[N-])[C@@H](CO)O2)c(=O)[nH]c1=O [Zidovudine],,53.2 °C,not observed,61.0 °C

# — paper PMC9412022, “Integrate thermostabilized fusion protein apocytochrome b 562 RIL and N-glycosylation mutations: A novel approach to heterologous expression of human UDP-glucuronosyltransferase (UGT) 2B7” (Frontiers in Pharmacology, 2022)
